In patent US20220213135A1, “DERIVATIVES OF GLYCERO-MANNO-HEPTOSE PHOSPHATE AND THEIR USE IN MODULATING AN IMMUNE RESPONSE” (Shanghai Yao Yuan Biotechnology Co., Ltd., priority 2019, published 2022):

What was measured:
[1] = test system: chemokine and cytokine expression in liver cells; assay: Chemokine and cytokine gene expression by qPCR in liver of mice after oral gavage of HMP1BP derivatives; assay type: in vivo, mouse; details: C57 female mice, 1 mg/kg oral gavage
Protocol: FIG. 5A-B. Oral administration of HMP1BP derivatives activates chemokine and cytokine expression in liver cells. 8 week old C57 female mice were administered saline or the indicated compounds by oral gavage, Compounds 2-7 (1 mg·kg) (A) or compounds 9, 10 (1 mg/kg), 11, 13 and 14 (0.1 mg/kg) (B) were tested. Four hours after administration of saline or compound, organs were dissected and gene expression was analyzed by qPCR for CCL2, CCL7, CXCL1, CXCL10, IFNb, IL1b, IL6, and TNFa (A) or CCL2 and CCL7 (B).
Several additional Compound 1 derivatives were tested for cytokine and chemokine gene induction in hepatocytes. […] Mice were treated as described above. Briefly, 8 week-old C57 female mice were separately administered (1 mg/kg) either one of Compounds 2-7 or a saline/DMSO control by oral gavage and 4 hours later the livers were dissected and gene expression analyzed by qPCR. The gene expression results were normalized to GADPH expression. […] The additional genes tested in this experiment are: CXCL1, encoding C—X—C motif chemokine ligand 1; CXCL10, encoding C—X—C motif chemokine ligand 10; IFNb, encoding interferon beta; IL-1b, encoding interleukin 1 beta; IL6, encoding interleukin 6; and TNFα, encoding tumor necrosis factor alpha. […] All the derivatives induced CCL2 and CCL7 more than 20-fold above the control. Compound 2 induced CCL2, CCL7, CXCL10, IFNb, IL6 and TNFα each more than 20-fold.

[2] = test system: primary mouse hepatocytes (C57/b6); assay: CCL2 and CCL7 gene expression by qPCR in primary mouse hepatocytes treated for 4 hours; assay type: cell-based; details: for CCL7 gene expression, fold change compared to no treatment (PBS) control: Compound 2 2 nanomolar to 200 nanomolar, Compound 1 200 nanomolar and 2 micromolar; for CCL2 gene expression, fold change compared to no treatment (PBS) control: normalized to GAPDH, Compound 2 200 picomolar to 200 nanomolar, Compound 1 up to 2 micromolar
Protocol: FIG. 2. Compound 2 has unexpected biological activity in liver cells compared to H1BADP (Compound 1). Primary hepatocytes were isolated from fresh mouse livers of C57/b6 background. Cells were cultured in serum-free medium overnight before treatment with either Compound 1 or Compound 2 for 4 hours. Cells were harvested and mRNA expression analyzed by qPCR.
The reference compound, referred to herein also as “Compound 1” (HMP1BP) is an intermediate in the H1b-ADP biosynthetic pathway generated by the dephosphorylation of HBP (FIG. 1). Derivatives of Compound 1 were generated and their activities tested in primary mouse hepatocytes (C57/b6). […] Hepatocytes were first isolated from fresh C57/b6 mouse livers, transferred to serum-free medium, and cultured overnight before treatment with Compound 1 or Compound 2 for 4 hours. Liver cells were then harvested, the mRNA isolated and gene expression of C—C motif chemokine ligand 2 (CCL2) and C—C motif chemokine ligand 7 (CCL7) was analyzed by qPCR and presented as fold change compared to a no treatment (PBS) control. Gene expression was normalized to the expression of the housekeeping gene, glyceraldehyde-3-phosphate dehydrogenase (GAPDH). […] In this assay.

[3] = test system: CCL2 and CCL7 gene expression in kidney, esophagus, liver, lung, brain, and stomach; assay: CCL2 and CCL7 gene expression by qPCR in organs of mice after oral gavage; assay type: in vivo, mouse; details: 4 hours
Protocol: FIG. 4. Compound 2 activates cytokine expression only in the liver. 8 week old C57 females were administrated Compound 2 by oral gavage in 200 ul of Saline and 1.5% DMSO as diluent. Four hours later, organs were dissected and gene expression of CCL2 and CCL7 was analyzed by qPCR in kidney, esophagus, liver, lung, brain, and stomach.
In this experiment, CCL7 was expressed more than 50-fold above the PBS control and CCL2 was expressed more than 20-fold above the control.

[4] = test system: hepatitis B virus AAV8-1.3 HBV; assay: AAV8-1.3 HBV mouse model: serum HBV DNA (qPCR), HBsAg and HBeAg (ELISA); assay type: in vivo; details: male C57BL/6 mice, 1 mg/kg per dose, vs PBS
Protocol: FIG. 6A-C. Compound 2 reduces hepatitis infection in murine model. Compound 2 was administered (1 mg/kg PO QD) and serum levels of HBV (A), HbsAg (B), or HbeAg (C) were measured after 7 days.
On day 1, male C57BL/6 mice were intravenously (i.v) injected with hepatitis B virus AAV8-1.3 HBV (1×10^11 v/g) (Beijing Five Plus Molecular Medicine Institute). On day 56 post-injection, each mouse was treated with Compound 2 two times per week (1 mg/kg per dose) or PBS. After seven days of treatment (at day 63 post injection), mouse serum was collected for analysis by qPCR (HBV DNA) and ELISA for Hepatitis B virus surface antigen (HBsAg) and Hepatitis B e-antigen (HBeAg). […] Specifically, the Compound 1 derivatives show tissue-specific liver cell activity and strong induction of cytokine and chemokine genes while also reducing HBV DNA and antigen titers in the serum of infected mice.

ALPK1 = biological target: T1, ALPK1 (Mus musculus, UniProt Q9CXB8); assay: Liver chemokine gene expression by qPCR in ALPK1 knockout and wildtype mice after oral treatment; assay type: in vivo; set-up: from tissue; host or cells: mouse liver (in vivo, wildtype vs ALPK1 knockout mice); details: WT mice, oral 0.5 mg/kg, 4 hours, normalized to PBS treated WT mice
T1 sequence (Q9CXB8 1-1231): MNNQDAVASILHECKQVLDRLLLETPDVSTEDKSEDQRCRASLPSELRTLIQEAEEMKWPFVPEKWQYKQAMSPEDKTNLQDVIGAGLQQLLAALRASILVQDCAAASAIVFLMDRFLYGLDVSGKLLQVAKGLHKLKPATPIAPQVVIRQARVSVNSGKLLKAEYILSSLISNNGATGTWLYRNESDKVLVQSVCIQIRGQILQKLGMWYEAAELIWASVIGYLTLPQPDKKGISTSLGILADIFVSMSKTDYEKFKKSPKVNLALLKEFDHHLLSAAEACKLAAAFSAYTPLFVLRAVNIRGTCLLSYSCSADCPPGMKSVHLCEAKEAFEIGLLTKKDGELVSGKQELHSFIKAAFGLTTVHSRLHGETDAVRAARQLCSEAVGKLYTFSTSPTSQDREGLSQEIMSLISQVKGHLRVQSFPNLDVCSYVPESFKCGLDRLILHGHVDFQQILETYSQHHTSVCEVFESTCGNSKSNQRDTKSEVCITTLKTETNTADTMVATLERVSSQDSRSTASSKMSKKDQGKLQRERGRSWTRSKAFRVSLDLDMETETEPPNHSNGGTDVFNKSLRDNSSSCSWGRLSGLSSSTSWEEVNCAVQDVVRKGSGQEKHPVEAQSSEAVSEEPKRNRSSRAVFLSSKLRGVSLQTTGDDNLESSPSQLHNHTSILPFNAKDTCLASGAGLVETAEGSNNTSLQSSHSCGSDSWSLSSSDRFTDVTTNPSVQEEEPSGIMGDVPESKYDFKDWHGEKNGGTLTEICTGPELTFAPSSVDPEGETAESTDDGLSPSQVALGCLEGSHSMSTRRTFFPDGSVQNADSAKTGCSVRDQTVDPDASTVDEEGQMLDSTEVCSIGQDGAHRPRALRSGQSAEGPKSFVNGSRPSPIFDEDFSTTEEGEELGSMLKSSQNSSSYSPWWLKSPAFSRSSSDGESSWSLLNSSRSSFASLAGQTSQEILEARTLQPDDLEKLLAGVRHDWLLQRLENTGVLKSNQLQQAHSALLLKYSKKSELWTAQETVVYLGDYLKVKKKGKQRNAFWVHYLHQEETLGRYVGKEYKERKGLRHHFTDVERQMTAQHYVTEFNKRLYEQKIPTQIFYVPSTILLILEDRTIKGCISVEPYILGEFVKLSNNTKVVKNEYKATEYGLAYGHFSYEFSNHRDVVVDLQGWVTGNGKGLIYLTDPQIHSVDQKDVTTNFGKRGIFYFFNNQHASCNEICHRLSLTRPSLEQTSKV
Protocol: FIG. 3. Compound 2 induces chemokine and cytokine expression via ALPK1. ALPK1 knockout (KO) mice and wildtype (WT) control were treated orally with either PBS or Compound 2 (0.5 mg/kg). Four hours after treatment, livers were dissected for gene expression analysis by qPCR. Expression was normalized to PBS treated WT mice.
ALPK1 knockout (KO) mice and wildtype (WT) control were treated orally with either PBS or Compound 2 (0.5 mg/kg). Four hours after treatment, livers were dissected for gene expression analysis by qPCR. Expression was normalized to PBS treated WT mice.

[5] = liver, 8 week-old C57 female mice
[6] = after seven days of treatment, ELISA

| Compound | IFNb gene induction ([1]; 4 hours (FIG. 5A)) | CCL2 gene expression at the highest concentration tested ([2]; 2 micromolar) | CCL7 gene expression, fold change compared to no treatment (PBS) control [2] | CCL2 gene expression, fold change compared to no treatment (PBS) control [2] | cytokine and chemokine gene expression in other organs ([3]; kidney, esophagus, lung, brain, stomach) | CCL2 gene expression above the control [3, 5] | CCL7 gene expression above the PBS control [3, 5] | HBV DNA copy number in serum ([4]; after seven days of treatment (day 63 post injection), qPCR) | Hepatitis B e-antigen (HBeAg) in serum [4, 6] | Hepatitis B surface antigen (HBsAg) in serum [4, 6] | expression of CCL2, CCL3, CCL7, and CXCL1 in liver (ALPK1) | CCL7 gene induction above the control ([1]; 4 hours (FIG. 5A)) | CXCL10 gene induction ([1]; 4 hours (FIG. 5A)) | IL6 gene induction ([1]; 4 hours (FIG. 5A)) | TNFα gene induction ([1]; 4 hours (FIG. 5A)) | CCL2 gene induction above the control ([1]; 4 hours, normalized to GADPH (FIG. 5A)) |
| --- | --- | --- | --- | --- | --- | --- | --- | --- | --- | --- | --- | --- | --- | --- | --- | --- |
| CC(=O)OC[C@H](F)C1O[C@@H](OP(=O)(N[C@@H](C)C(=O)OC(C)C)Oc2ccccc2)C(OC(C)=O)[C@@H](OC(C)=O)[C@@H]1OC(C)=O (stereo partly drawn) [Compound 4, (2S,3S,4S,5S,6S)-2-((S)-2-acetoxy-1-fluoroethyl)-6-(((((S)-1-isopropoxy-1-oxopropan-2-yl)amino)(phenoxy)phosphoryl)oxy)tetra-hydro-2H-pyran-3,4,5-triyl triacetate] | strong inductive effect | – | – | – | – | – | – | – | – | – | – | – | – | – | – | – |
| O=P(O)(O)O[C@@H]1O[C@H]([C@H](O)CO)[C@@H](O)[C@H](O)[C@@H]1O [Compound 1, (2S,3S,4S,5S,6R)-6-((R)-1,2-dihydroxyethyl)-3,4,5-trihydroxytetrahydro-2H-pyran-2-yl dihydrogen phosphate] | – | only similar to that induced by the lowest concentration (200 picomolar) of Compound 2 | only a much smaller induction in CCL7 gene expression | did not significantly induces CCL2 expression relative to the PBS control except at the highest concentration tested | – | – | – | – | – | – | – | – | – | – | – | – |
| CC(=O)OC[C@H](F)[C@H]1O[C@@H](OP(=O)(Oc2ccccc2)Oc2ccccc2)[C@@H](OC(C)=O)[C@@H](OC(C)=O)[C@@H]1OC(C)=O [Compound 2, (2S,3S,4S,5S,6S)-2-((S)-2-acetoxy-1-fluoroethyl)-6-((diphenoxyphosphoryl)oxy)tetrahydro-2H-pyran-3,4,5-triyl triacetate] | more than 20 fold | – | induced in a dose-dependent manner | significantly induced CCL2 expression in a dose-dependent manner | No other organ tissue analyzed showed cytokine and chemokine gene expression | more than 20 fold | more than 50 fold | significantly reduced HBV DNA copy number | decreased compared to the PBS control | decreased compared to the PBS control | induce the expression | more than 20 fold | more than 20 fold | more than 20 fold | more than 20 fold | more than 20 fold |
